Measurements as given in patent US20070264202A1, “Pharmaceutical Composition Comprising an Isomer of Betamimetic Agent and an Anti-Cholinergic Agent” (CIPLA LIMITED, priority 2004, published 2007).

Experiments:
[1] = tested on: beta-adrenoreceptor; conditions: in-vitro studies, salbutamol enantiomers; cited from earlier work
[2] = cited from earlier work
[3] = compared with the racemate; cited from earlier work
[4] = Flow, suspension and dispersion characteristics; type: physicochemical; conditions: compared with the racemate
[5] = tested on: subjects with stable mild to moderate bronchial asthma; assay: Randomized double-blind, single-dose, crossover study of bronchodilator responses via metered dose inhaler; type: in vivo; conditions: monitored over 6 hours
Procedure: A study was conducted to compare bronchodilator responses to levosalbutamol sulphate and racemic salbutamol sulphate administered via metered dose inhaler in a randomized double-blind, single-dose, crossover study. In this study single doses of 100 mcg levosalbutamol sulphate and 200 mcg racemic salbutamol sulphate were administered via MDI in subjects with stable mild to moderate bronchial asthma, who were then monitored over a period of 6 hours. […] Thus, it is clear from the study that a reduced dose of levosalbutamol sulphate is required compared to racemic salbutamol sulphate to have the same therapeutic effect.

In the case of CC(C)(C)NC[C@@H](O)c1ccc(O)c(CO)c1 (single isomer, unassigned) [S-isomer], the “affinity for the beta-adrenoreceptor” value [1] is given as “markedly less affinity”.
In the case of COc1ccc(C[C@@H](C)NC[C@H](O)c2ccc(O)c(NC=O)c2)cc1 [R,R formoterol], the “activity relative to S,S-isomer or any other available isomer” value [2] is listed as 1000 times.
For CC(C)(C)NC[C@H](O)c1ccc(O)c(CO)c1 [levosalbutamol], the bronchodilatory effects [3] is listed as “greater bronchodilatory effects than the racemate”, the flow property [4] is listed as “more free flowing than the racemate” and the “suspension and dispersion characteristics” value [4] is listed as “better suspension and dispersion characteristics”.
In the case of levosalbutamol sulphate, the bronchodilator response ([5]; single dose 100 mcg via MDI, compared with 200 mcg racemic salbutamol sulphate) is reported as “equivalent time-dependant bronchodilator responses”.
In the case of “salbutamol sulphate [racemic salbutamol sulphate]”, the bronchodilator response ([5]; single dose 200 mcg via MDI, compared with 100 mcg levosalbutamol sulphate) is reported as “equivalent time-dependant bronchodilator responses”.
